Patent EP1543832A2, “Use of trans-4[4-(3-chloro-4-methoxy-benzylamino) benzothieno[2,3-d]pyrimidin-2-yl]-cyclohexanecarboxylic acid in the treatment of extrapyramidal movement disorders” (MERCK PATENT GmbH, priority 2003, dated 2005)

Columns and labels:
[1] = tested on: reserpinized rat or mouse; test: Reserpine-induced akinesia in activity meters; assay type: in vivo; conditions: 24 h after reserpine
Description: A typical animal model is the reserpinized rat or mouse (e.g. M.S. Starr and B.S. Starr, J. Neural Transm. - Park. Dis. Dement. Sect., 1994; 7: 133-142; M. Gossel et al., J. Neural Transm. - Park. Dis. Dement. Sect., 1995; 10: 27-39; N.R. Hughes et al., Mov. Disord., 1998; 13: 228-233). Reserpine is a potent depleter of monoamines and produces nearly complete akinesia in both species. Prominent 24 h after application, the distance travelled and the time active is nearly zero as measured in conventional activity meters.

[2] = tested on: Parkinsonian cynomolgus monkey; test: Adverse effects of long-term l-dopa treatment in the MPTP Parkinsonian cynomolgus monkey; assay type: in vivo; conditions: MPTP monkeys chronically treated with l-dopa
Description: Treatment of adverse effects of conventional anti-Parkinsonian drugs as defined above are determined in a modification of the animal model of the Parkinsonian cynomolgus monkey according to P.J. Blanchet et al., Exp. Neurology 1998; 153: 214-222. Monkeys render parkinsonian by repeated injections of 1-methyl-4-phenyl-1,2,3,6-tetrahydropyridine (MPTP). The Parkinsonian monkeys are chronically treated with the standard I-dopa therapy according to P.J. Blanchet et al., Mov. Disord., 1998; 13: 798-802. Longterm treatment with I-dopa induces extrapyramidal motor side effects and psychotic states which are both qualitatively and quantitatively, assessed by the Abnormal Involuntary Movement Scale (P.J. Blanchet et al., Mov. Disord. 1998; 13: 798-802) for different body parts (face, neck, trunk, each limb) and by rating for psychotic states by observing the monkey's attention, reactivity and mobility. Trans-4-[4-(3-chloro-4-methoxybenzylamino)-benzothieno-[2,3-d]pyrimidin-2-yl]cyclohexane-carboxylic acid reduced overall choreiform dyskinesias and dystonic dyskinesias as well as psychotic states.

[3] = tested on: cervical dystonia (spasmodic torticollis); test: Double-blind placebo-controlled study in cervical dystonia (TWSTRS); assay type: in vivo, patients; conditions: 2.5 mg to 20 mg b.i.d. versus placebo
[4] = tested on: neuroleptics-induced muscle rigidity in rats; test: Neuroleptics-induced muscle rigidity (haloperidol challenge); assay type: in vivo; conditions: resistance to passive flexion and extension of the hind limb
Excerpt: A typical animal model is neuroleptics-induced muscle rigidity in rats according to S. Wolfarth et al., Arch. Pharmacol. 1992; 345: 209-212. Rats are challenged with the conventional neuroleptic drug haloperidol which enhances muscle tone. Muscle tone is electromechanically measured as the resistence to passive flexion and extension of the hind limb. Trans-4-[4-(3-chloro-4-methoxybenzylamino)-benzothieno-[2,3-d]pyrimidin-2-yl]cyclo-hexanecarboxylic acid or a physiologically acceptable salt thereof thereof decrease the mucle tone enhanced by haloperidol.

[5] = tested on: systemic 3-nitropropionic acid (3-NP) model in rats; test: Systemic 3-nitropropionic acid (3-NP) model, nocturnal activity; assay type: in vivo
Description: A typical animal model is the systemic 3-nitropropionic acid (3-NP) model in rats according to C.V. Borlongan et al., Brain Res., 1995; 697: 254-257. Rats are treated with injections of the selective striatal neurotoxin 3-NP i.p. every fourth day (C.V. Borlongan et al., Brain Res. Protocols, 1997; 1: 253-257). After two injections of 3-NP, rats display nocturnal hyperactivity reflecting symptoms of early Huntington's disease, whereas rats treated with four injections of 3-NP display nocturnal akinesia (hypoactivity) reflecting symptoms of late Huntington's disease. Nocturnal activity is automatically measured in conventional acitivity cages by infrared beams. Trans-4-[4-(3-chloro-4-methoxybenzylamino)-benzothieno-[2,3-d]pyrimidin-2-yl]cyclohexanecarboxylic acid or a physiologically acceptable salt thereof reduce both the nocturnal hyperactivity and akinesia.

[6] = Abnormal Involuntary Movement Scale

In the case of `COc1ccc(CNc2nc([C@H]3CC[C@H](C(=O)O)CC3)nc3sc4ccccc4c23)cc1Cl` [trans-4-[4-(3-chloro-4-methoxybenzylamino)-benzothieno-[2,3-d]pyrimidin-2-yl]cyclohexanecarboxylic acid], the akinesia [1] is reported as “dose-dependently reduced”, the “distance travelled and time active” value ([1]; conventional activity meters) is reported as “restored distance travelled and time active to about the level of normal animals” and the dystonic dyskinesias [2, 6] is reported as “reduced”. For the same compound, the overall choreiform dyskinesias [2, 6] was “reduced”, the psychotic states ([2]; rating of attention, reactivity and mobility) was “reduced” and the TWSTRS scores [3] was “significant improvement”. For the same compound, the “muscle tone enhanced by haloperidol” value [4] was “decrease”, the nocturnal akinesia ([5]; after four injections of 3-NP (late Huntington's disease)) was “reduce” and the nocturnal hyperactivity ([5]; after two injections of 3-NP (early Huntington's disease)) was “reduce”.
